Source: PubChem BioAssay AID651630 (Sanford-Burnham Center for Chemical Genomics, 2012)
Active and inactive are the calls of the source.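 Rule for the calls: active = lipid-stain IC50 at or below a set limit, with nuclear-stain toxicity IC50 at least five times higher; inactive = the rest.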

Experiments:
DAPI = test: triacylglycerol accumulation inhibitor potency, dose response, cell-based, panel, Nile Red and DAPI fluorescence, H9c2 (AID 651630); settings: H9c2 cells, DAPI nuclear fluorescence (cytotoxicity counter-readout), oleic acid;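 note: cells exposed to compound overnight before fixation and staining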
TAG = test: as above; settings: H9c2 cells, Nile Red TAG fluorescence, oleic acid

| SMILES | IC50 cytotoxicity (DAPI nuclear signal decrease) (DAPI; mean of runs) | IC50 cytotoxicity (DAPI nuclear signal decrease) (DAPI; run 1) | IC50 cytotoxicity (DAPI nuclear signal decrease) (DAPI; run 2) | IC50 (TAG; mean of runs) | IC50 (TAG; run 1) | IC50 (TAG; run 2) |
| --- | --- | --- | --- | --- | --- | --- |
| COC(=O)/C=C/c1ccccc1S(=O)(=O)N(Cc1ccccc1)Cc1ccco1 | > 25 µM (inactive) | > 25 µM | > 25 µM | > 25 µM (inactive) | > 25 µM | > 25 µM |
| Cc1ccc(-c2cc(C(F)F)n3ncc(C(=O)Nc4c(C)nn(Cc5c(Cl)cccc5Cl)c4C)c3n2)cc1 | > 25 µM (inactive) | > 25 µM | > 25 µM | > 25 µM (inactive) | > 25 µM | > 25 µM |
| CCOc1c(Br)cc(CNC2CCCCCCC2)cc1OC | 19.7 µM (inactive) | 18.8 µM | 20.6 µM | > 25 µM (inactive) | > 25 µM | > 25 µM |
| Nc1ccc(C#Cc2c(-c3ccsc3)oc3ccc(N4CCOCC4)cc23)cc1 | > 25 µM (inactive) | > 25 µM | > 25 µM | 11.4 µM | 10.8 µM | 11.9 µM |
| C=CC[C@@H](CC(=O)N(CCO)Cc1ccccc1)C(=O)N[C@H](COC(=O)[C@@H](CC=C)Cc1ccc(F)cc1)Cc1c[nH]c2ccccc12 | > 25 µM (inactive) | > 25 µM | > 25 µM | 8.92 µM | 7.83 µM | 10 µM |
| CCOc1ccccc1C1C2=C(COC2=O)Nc2cc3c(cc21)OCO3 (centres undefined) | > 25 µM (inactive) | > 25 µM | > 25 µM | – | > 25 µM | < 0.78 µM |
| C=CCC[C@H](Cc1ccc(F)cc1)C(=O)OC[C@H](C)NC(=O)[C@@H](CC=C)CC(=O)N[C@H](CO)Cc1ccccc1 | > 25 µM (inactive) | > 25 µM | > 25 µM | 15.4 µM (inactive) | 11.9 µM | 18.9 µM |
| COCCN1Cc2cccc(C(=O)Nc3cccc(-c4nc5ccccc5[nH]4)c3)c2C1=O | – | > 25 µM | > 25 µM | 1.96 µM | 1.26 µM | 2.66 µM |
| Nc1c(Cl)cc(-c2csc(N3CCCC3c3nc4cc(Cl)c(N5CCCCC5)cc4n3CCOCCO)n2)cc1Cl (centres undefined) | > 25 µM (inactive) | > 25 µM | > 25 µM | 11.4 µM | 11.6 µM | 11.1 µM |
| COc1cc([C@@H]2c3cc4c(cc3[C@H](O)[C@H]3COC(=O)[C@H]23)OCO4)cc(OC)c1OC | > 25 µM (inactive) | > 25 µM | > 25 µM | > 25 µM (inactive) | > 25 µM | > 25 µM |
| O=[N+]([O-])c1ccc(Nc2nc(NC3CCCCC3)nc(N3CCCC3)n2)cc1 | > 25 µM (inactive) | > 25 µM | > 25 µM | – | > 25 µM | 11.1 µM |
| O=C1c2ccccc2C(=O)c2c1cccc2N1CCN(C/C=C/c2ccccc2)CC1 | > 25 µM (inactive) | > 25 µM | > 25 µM | – | 23.1 µM | > 25 µM |
| CCOc1ccccc1NC(=O)C1CCN(C(=O)NCc2ccccc2)CC1 | > 25 µM (inactive) | > 25 µM | > 25 µM | > 25 µM (inactive) | > 25 µM | > 25 µM |
| COc1cc(C2C(C#N)=C(N)Oc3cc4c(cc32)OCO4)cc(OC)c1OC (centres undefined) | > 25 µM (inactive) | > 25 µM | > 25 µM | – | > 25 µM | 3.52 µM |
| O=C(Nc1ccccc1N1CCCCC1)c1ncoc1-c1ccc(F)cc1 | > 25 µM (inactive) | > 25 µM | > 25 µM | > 25 µM (inactive) | > 25 µM | > 25 µM |
| CC1(C)CCCN(Cc2c(O)ccc3c(=O)c(-c4nc5ccccc5s4)c(N)oc23)C1 | > 25 µM (inactive) | > 25 µM | > 25 µM | 10 µM | 10 µM | 10 µM |
| CCCCCCCCn1c(N2CCN(c3cccc(Cl)c3)CC2)nc2c1c(=O)[nH]c(=O)n2C | > 25 µM (inactive) | > 25 µM | > 25 µM | > 25 µM (inactive) | > 25 µM | > 25 µM |

| SMILES | IC50 cytotoxicity (DAPI nuclear signal decrease) (DAPI; mean of runs) | IC50 cytotoxicity (DAPI nuclear signal decrease) (DAPI; run 1) | IC50 cytotoxicity (DAPI nuclear signal decrease) (DAPI; run 2) | IC50 (TAG; mean of runs) | IC50 (TAG; run 1) | IC50 (TAG; run 2) |
| --- | --- | --- | --- | --- | --- | --- |
| CCOCCC(=O)Nc1ccc2c(c1)c(=O)n(C)n2-c1ccc2ccccc2c1 | > 25 µM (inactive) | > 25 µM | > 25 µM | > 25 µM (inactive) | > 25 µM | > 25 µM |
| COc1cc(NC(=O)c2ccco2)c(OC)cc1NC(=O)CCC(=O)Nc1cccc(C)c1C | > 25 µM (inactive) | > 25 µM | > 25 µM | – | > 25 µM | 22.3 µM |
| CCCc1[nH]n(-c2ccc([N+](=O)[O-])cc2)c(=O)c1C=NCCc1c[nH]c2ccccc12 | > 25 µM (inactive) | > 25 µM | > 25 µM | 11.9 µM | 10.3 µM | 13.6 µM |
| CN(C)CCCn1c(SCC(=O)Nc2nc(-c3cccc(Br)c3)cs2)nc2ccccc2c1=O | > 25 µM (inactive) | > 25 µM | > 25 µM | 9.78 µM | 10.1 µM | 9.46 µM |
| COc1ccc2nc(NC(=O)c3cccc(OCc4c(C)noc4C)c3)sc2c1 | > 25 µM (inactive) | > 25 µM | > 25 µM | 17.6 µM (inactive) | 17.4 µM | 17.8 µM |
| CCCC(=O)Nc1nc2ccc(NC(=O)c3c(F)c(F)c(OC)c(F)c3F)cc2s1 | > 25 µM (inactive) | > 25 µM | > 25 µM | 6.21 µM | 6.68 µM | 5.73 µM |
| CCOc1ccc(C2=Nc3ccccc3C(c3ccc(N4CCOCC4)cc3)=NN2)cc1 | > 25 µM (inactive) | > 25 µM | > 25 µM | – | > 25 µM | 14.4 µM |
| CN1CSC(=S)N(C)C1 | > 25 µM (inactive) | > 25 µM | > 25 µM | > 25 µM (inactive) | > 25 µM | > 25 µM |
| Fc1cccc(Nc2nc(-c3ccncc3)nc3ccccc23)c1 | > 25 µM (inactive) | > 25 µM | > 25 µM | > 25 µM (inactive) | > 25 µM | > 25 µM |
| Cc1cc(=O)oc2cc(NC(=O)c3cccc(Br)c3)ccc12 | > 25 µM (inactive) | > 25 µM | > 25 µM | > 25 µM (inactive) | > 25 µM | > 25 µM |
| Cc1cc(NC(=O)c2cc(-c3ccncc3)nc3c(C)cccc23)no1 | > 25 µM (inactive) | > 25 µM | > 25 µM | 11.5 µM | 10.5 µM | 12.5 µM |
| Cc1noc(C)c1COc1cccc(C(=O)OCC(=O)N2CC(=O)Nc3ccccc32)c1 | > 25 µM (inactive) | > 25 µM | > 25 µM | 15.4 µM (inactive) | 11.2 µM | 19.7 µM |
| NC(=O)c1cc(-c2ccccc2)nc(N2CCOCC2)n1 | > 25 µM (inactive) | > 25 µM | > 25 µM | – | > 25 µM | 20.3 µM |
| CC(C)C(C)(C#N)NC(=O)CSc1nc2scc(-c3ccco3)c2c(=O)n1-c1ccccc1 (centres undefined) | > 25 µM (inactive) | > 25 µM | > 25 µM | 10.5 µM | 11.4 µM | 9.69 µM |
| Cc1ccc(Cn2c(C(C)Nc3nc(-c4ccc(Cl)c([N+](=O)[O-])c4)cs3)nc3cc(C(F)(F)F)ccc32)cc1 (centres undefined) | – | > 25 µM | 7.97 µM | 8.37 µM | 6.7 µM | 10 µM |
| COC(=O)[C@]1(Cc2ccccc2)N[C@H](c2ccc(-c3cccc(Cl)c3)c(OC)c2)[C@@H]2C(=O)N(C)C(=O)[C@@H]21 | > 25 µM (inactive) | > 25 µM | > 25 µM | > 25 µM (inactive) | > 25 µM | > 25 µM |
